Data as given in patent publication US20210251963A1, “UREA DERIVATIVES FOR USE IN THE TREATMENT OF SUBJECTS WITH ELEVATED EXPRESSION AND/OR ACTIVITY OF SRPK1” (Scandion Oncology A/S, priority 2018, published 2021).
Where two headings read alike, the source gives them in different places.

Tests used:
[1] = target: T1, SRPK1 (Homo sapiens, UniProt Q96SB4); experiment: Premier Screen kinase activity screening and IC50 determination (33P ATP filter binding); format: biochemical
T1 construct: purchased MRC in Dundee (Premier Screen service)
Source text: (§1) The kinase activity screening was done at MRC in Dundee. The screen was a so-called “Premier Screen” with 140 kinases. More specific information can be found here: http://www.kinase-screen.mrc.ac.uk/services/premier-screen
(§2) The method is based on a radioactive filter binding assay using 33P ATP (Hastie, et al 2006. Nat Protoc. 2006; 1(2):968-71; Bain, et al 2007. Biochem J. 2007 Dec. 15; 408(3):297-315). This method is sensitive, accurate and provides a direct measure of kinase enzyme activity. A concentration of 10 μM SCO-101 was used.
(§3) In the table below, the data is portrayed as the mean percentage activity of assay duplicates and a standard deviation. These percentage activities were calculated in comparison to DMSO controls. 10 μM SCO-101 reduced the activity of SRPK1 to 6% of the DMSO control.
This experiment was technically carried out as described in example 1, also done by MRC in Dundee. However, in this experiment 10 different concentrations of SCO-101 was applied in order to determine the half maximal inhibitory concentration (IC50). The following concentrations (in nM) were applied: 1.5, 5, 15, 50, 150, 500, 1500, 5000, […] and 50000. This experiment generated a dose response curve (FIG. 1), which confirmed the SCO-101 mediated inhibition of SRPK1. The IC50 value was determined to be 3.0 μM (Table 2).

[2] = target: AMPK (hum); experiment: Premier Screen kinase activity screening (33P ATP filter binding); format: biochemical, human; details: 10 μM SCO-101, mean of assay duplicates
Source text: as §1, §2, §3

[3] = Cell viability (MTT assay); format: cell-based; details: human, HT29 SN38 resistant colon cancer cells, HT29 SN38 resistant, SCO-101 20 μM alone, read-out: cell viability, % of untreated control cells
Method: SN38 was applied to a SN38 sensitive colon cancer cell line (“HT29 parental”) and to a SN38 resistant colon cancer cell line (“HT29 SN38 resistant”).
The Log Concentration (μM) used are—1 for SN38. Data represents cell viability data (MTT assay) and cells were incubated with drugs for 72 hours.
The Log Concentrations (μM) used are—1 for SN38, and 1.5 for both Srpkin340 and Sphinx 31. Data represents cell viability data (MTT assay) and cells were incubated with drugs for 72 hours.

T1 sequence (Q96SB4 whole entry): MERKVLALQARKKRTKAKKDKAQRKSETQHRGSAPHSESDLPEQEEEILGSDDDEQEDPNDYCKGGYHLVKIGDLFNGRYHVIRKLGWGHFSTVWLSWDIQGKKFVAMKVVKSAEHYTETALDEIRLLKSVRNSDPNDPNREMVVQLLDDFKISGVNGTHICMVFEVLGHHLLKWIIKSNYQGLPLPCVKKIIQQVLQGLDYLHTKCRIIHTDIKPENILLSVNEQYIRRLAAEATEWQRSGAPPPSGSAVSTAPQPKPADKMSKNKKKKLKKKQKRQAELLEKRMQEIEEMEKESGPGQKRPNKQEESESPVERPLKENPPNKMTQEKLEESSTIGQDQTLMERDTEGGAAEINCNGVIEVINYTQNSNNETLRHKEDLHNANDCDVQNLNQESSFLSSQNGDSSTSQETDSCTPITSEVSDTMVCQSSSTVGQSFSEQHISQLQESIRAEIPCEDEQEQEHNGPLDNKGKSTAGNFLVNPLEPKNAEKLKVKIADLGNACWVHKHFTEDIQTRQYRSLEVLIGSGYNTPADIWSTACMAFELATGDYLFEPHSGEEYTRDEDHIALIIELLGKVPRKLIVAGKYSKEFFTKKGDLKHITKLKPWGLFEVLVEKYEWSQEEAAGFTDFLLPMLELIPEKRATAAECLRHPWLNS

O=C(Nc1cc(C(F)(F)F)cc(C(F)(F)F)c1)Nc1ccc(Br)cc1-c1nnn[nH]1 [SCO-101]
remaining activity at 10 µM ([1]; 10 μM SCO-101, mean of assay duplicates, read-out: Kinase activity (percentage of DMSO control)): 6% | IC50 ([1]; first determination, 10 concentrations, read-out: IC50): 2.9 µM | IC50 ([1]; mean of two determinations, read-out: mean IC50): 3 µM | IC50 ([1]; second determination, 10 concentrations, read-out: IC50): 3 µM | Kinase activity (percentage of DMSO control) [2]: 97 percentage of DMSO control | viability at 72 h, 20 μM [3]: 96%
